Laboratory results: publication PMC9696374, “Antiandrogenic Effects of a Polyphenol in Carex kobomugi through Inhibition of Androgen Synthetic Pathway and Downregulation of Androgen Receptor in Prostate Cancer Cell Lines” (International Journal of Molecular Sciences, 2022)

Biological target: T1, dehydrogenase/reductase SDR family member 11 (DHRS11) (Homo sapiens, UniProt Q6UWP2)
T1 construct: Homogenous recombinant DHRS11
T1 sequence (Q6UWP2 31-260): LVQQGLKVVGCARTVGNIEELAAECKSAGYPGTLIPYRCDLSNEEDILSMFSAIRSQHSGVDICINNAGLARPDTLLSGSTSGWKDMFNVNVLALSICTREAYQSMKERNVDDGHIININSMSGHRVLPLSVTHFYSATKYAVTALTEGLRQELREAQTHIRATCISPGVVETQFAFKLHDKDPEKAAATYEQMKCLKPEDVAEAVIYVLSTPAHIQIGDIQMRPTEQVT
Test: reductase activity of recombinant DHRS11, NADPH absorbance at […] nm, isatin substrate
Type: biochemical

Cc1c(O)cc(O)c2c(=O)cc(/C=C/c3ccc(O)cc3)oc12 [VI, 5,7-dihydroxy-8-methyl-2-[2-(4-hydroxyphenyl)ethenyl]-4H-1-benzopyran-4-one]
IC50: 0.35 ± 0.03 µM
